We go through one molecule from paper PMC5642494 (Oncotarget, 2017).

The IC50 is the midpoint of a concentration-inhibition curve. Low readings indicate inhibition by little substance, high ones a need for much substance.

One experiment deals with pRb at S807/811. Nature of the experiment: Immunoblotting of phospho-Rb in ZR-75-1, T-47D and MCF7 cells. Particulars: MCF7, T-47D, ZR-75-1 cells; 24 hours; 0.027 µM to 20 µM. Type of experiment: cell-based, human. How it is done: Protein lysates were prepared from the cells and analyzed for the expression of various biomarkers by immunoblotting. The biomarkers included phosphor-Rb at serines 807/811,phosphorylation of serine 2 on the C-terminal repeat domain on RNA polymerase II (pCTD) and MCL1. Images of Western blots were cropped to denote the relevant band(s) for clarity. […] Ki-67 positive events were obtained by gating versus background signal.
(A western blot detects proteins with antibodies after separation by electrophoresis.)

Experiment [1] has as its system pRb (Ser780). Briefly: High content imaging of Rb phosphorylation (Ser780), EFM-19. In kind it is cell-based. To be noted: Homo sapiens, 16 hours, mean ± Stdev n = 2. The protocol: (§1) Relative IC50/EC50 values were determined by curve fitting to a four parameter logistic equation: Y = bottom + ((top-bottom)/ (1+exp(HillSlope*(X – LnIC50)), where X is the natural log of dose/concentration, Y is response, decreasing as X increases, top and bottom are plateaus in the same units as Y, lnIC50 is the natural log of potency, in the same log units as X, and HillSlope measures the steepness of the curve. Data were plotted using GraphPad Prism.
(§2) As controls, cells were treated with 10 µM palbociclib or vehicle ( 0.2 % v/v DMSO). Additional details for cell-based assays are provided in the Supplemental Methods. […]
(§3) www.impactjournals.com/oncotarget/ Oncotarget Supplementary Materials
(§4) Preclinical characterization of abemaciclib in hormone receptor […]
(§5) METHODS High content imaging cell-based assays for monitoring phosphorylation of Rb (ser780), G1 arrest and
(§6) Enzyme kinetics of CDK6/cyclin D3 complexes Cells were fixed with para-formaldehyde and Rb phosphorylation at Serine 780 was detected using CDK6/cyclin D3 activity was measured by the a primary mouse anti-Rb (PS780) antibody followed phosphorylation of CTRF using [g-33P] […] Plates were read in an kinase buffer containing 68 mM Hepes at pH 7.5, 6.67 mM Acumen Explorer eX3 (TTP Labtech). […]
(§7) (EDTA) was used to determine the level of background evaluated by measuring PI signal using high content 33P in the absence of enzyme activity. […]

For experiment [2], the system named is pRb (Ser780). Nature of the experiment: High content imaging of Rb phosphorylation (Ser780), MDA-MB-361. Particulars: Homo sapiens, 16 hours, mean ± Stdev n = 2. Type of experiment: cell-based. How it is done:
as §1, §2, §3, §4, §5, §6, §7

For the next experiment, the system named is ZR-75-1 xenograft tumors. Nature of the experiment: In vivo target inhibition, immunoblotting of ZR-75-1 xenograft tumors. On the set-up: species or system mouse. Particulars: 50 or 75 mg/kg QD x 5, Western blots. How it is done: Control animals were treated with vehicle (1% HEC/ 25 mM phosphate buffer, pH = 2) using the same schedule of dosing. The red bar just above the X-axis illustrates the duration of the treatment period. Tumor volume measurements were taken routinely during the course of the study and are plotted as mean +/- SEM versus days following tumor cell implantation. (B) Body weights were recorded routinely during the course of the study and are plotted as mean % change (+/– SEM) relative to the mean body weight recorded on the day just prior to the first day of dosing (baseline day = 27). (C) The waterfall plots indicate the relative tumor volumes for individual animals which were determined at the end of the dosing period (study day 55). […] Growth inhibition is observed in those instances where the calculated changes in %DT/C are less than 100% whereby greater inhibition results in smaller %DT/C values. Change in %DT/C values that are less than zero indicate regressions whereby the tumor volumes on day 55 are smaller than the baseline tumor volume measured on the day prior to the initiation of dosing (baseline day = day 27). […] The tumor volumes measured on day 27 served as the baseline volumes for the calculation of %DT/C. […] Potential CDK9 inhibition was assessed by measuring the expression of MCL1 or phosphorylation of serine 2 on the C-terminal domain repeat on RNA polymerase II (pCTD). […]

Regarding `CCN1CCN(Cc2ccc(Nc3ncc(F)c(-c4cc(F)c5nc(C)n(C(C)C)c5c4)n3)nc2)CC1` [abemaciclib, Abemaciclib], in the experiment on pRb at S807/811, the “levels of phosphorylated Rb (pRb) at S807/811” value was “decrease in levels of phosphorylated Rb”. The IC50 in the experiment with pRb (Ser780) [1] is 12 ± 11 nM; with pRb (Ser780) [2], 67 ± 37 nM. Besides, the “CDK9 inhibition in tumors (pCTD, MCL1 expression)” value in the experiment with ZR-75-1 xenograft tumors is “not inhibited at any dose”. Also, in the experiment on ZR-75-1 xenograft tumors (tumors collected 24 hours later), the “phospho-(Ser780/807/811)-Rb, Topo IIα and phospho-(Ser10)-H3 in tumors” value was “inhibition of phospho-(Ser780/807/811)-Rb”.
